Experimental data published in ChEMBL document CHEMBL3045096, “Pharmacophore modeling and 3D-QSAR (CoMSIA) studies for structural requirements of some triazine derivatives as G-quadruplex binders for telomerase inhibition” (Med Chem Res, 2013).

Molecular target: Telomerase reverse transcriptase (Homo sapiens, UniProt O14746)
Experiment: Inhibition of telomerase (unknown origin)

Telomerase reverse transcriptase, sequence (O14746 whole entry): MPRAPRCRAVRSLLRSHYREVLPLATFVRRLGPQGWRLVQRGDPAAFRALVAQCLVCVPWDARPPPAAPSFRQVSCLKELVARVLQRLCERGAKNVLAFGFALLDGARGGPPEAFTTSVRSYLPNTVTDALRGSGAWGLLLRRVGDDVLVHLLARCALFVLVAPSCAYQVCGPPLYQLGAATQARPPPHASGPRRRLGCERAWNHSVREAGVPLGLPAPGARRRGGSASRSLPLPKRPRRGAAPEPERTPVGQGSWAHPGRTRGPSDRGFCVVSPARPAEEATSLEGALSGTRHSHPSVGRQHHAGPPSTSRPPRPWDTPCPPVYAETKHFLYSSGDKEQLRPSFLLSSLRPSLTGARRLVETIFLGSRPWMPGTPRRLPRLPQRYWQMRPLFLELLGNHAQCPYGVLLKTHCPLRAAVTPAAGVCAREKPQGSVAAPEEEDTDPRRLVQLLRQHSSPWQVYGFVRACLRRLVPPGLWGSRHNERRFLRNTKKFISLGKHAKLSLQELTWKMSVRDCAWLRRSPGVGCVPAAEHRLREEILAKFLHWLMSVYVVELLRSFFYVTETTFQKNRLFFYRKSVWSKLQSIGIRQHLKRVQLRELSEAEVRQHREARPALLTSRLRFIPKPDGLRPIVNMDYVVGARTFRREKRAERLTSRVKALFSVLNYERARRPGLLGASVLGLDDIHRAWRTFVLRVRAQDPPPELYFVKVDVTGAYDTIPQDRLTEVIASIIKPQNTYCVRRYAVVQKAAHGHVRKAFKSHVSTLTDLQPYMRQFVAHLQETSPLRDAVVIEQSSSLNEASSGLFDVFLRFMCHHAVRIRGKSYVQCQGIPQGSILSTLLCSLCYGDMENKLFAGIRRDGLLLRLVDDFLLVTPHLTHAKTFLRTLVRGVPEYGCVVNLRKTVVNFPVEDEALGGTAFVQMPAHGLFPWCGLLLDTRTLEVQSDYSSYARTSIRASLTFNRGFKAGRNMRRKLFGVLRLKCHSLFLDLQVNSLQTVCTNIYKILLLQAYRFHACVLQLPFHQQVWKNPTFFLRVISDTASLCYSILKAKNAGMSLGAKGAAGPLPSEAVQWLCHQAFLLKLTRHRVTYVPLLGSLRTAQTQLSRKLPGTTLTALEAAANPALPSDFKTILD

Row | SMILES | IC50 [nM]
1 | CSc1nc(Nc2ccc3nc(C)cc(N(C)C)c3c2)nc(Nc2ccc3nc(C)cc(N(C)C)c3c2)n1 | 41
2 | CSc1nc(Nc2ccc(C#N)cc2)nc(Nc2ccc3nc(C)cc(N)c3c2)n1 | 3400
3 | CSc1nc(Nc2ccc3nc(C)cc(C)c3c2)nc(Nc2ccnc3ccccc23)n1 | 3400
4 | CCc1cc(Nc2nc(Nc3ccc4nc(C)cc(N)c4c3)nc(SC)n2)ccn1 | 2200
5 | CSc1nc(Nc2ccc3nc(C)ccc3c2)nc(Nc2ccc3nc(C)cc(N)c3c2)n1 | 1000
6 | CCN(CC)c1nc(Nc2ccncc2)nc(Nc2ccc3nc(C)cc(C)c3c2)n1 | 3400
7 | Cc1cc(N)c2cc(Nc3ccnc(Nc4ccc5nc(C)cc(N)c5c4)n3)ccc2n1 | 490
8 | CC[n+]1c(C)cc(N)c2cc(Nc3nc(N)nc(Nc4ccc5c(c4)c(N)cc(C)[n+]5CC)n3)ccc21 | 56
9 | CNc1nc(Nc2ccc3nc(C)cc(NC)c3c2)nc(Nc2ccc3nc(C)cc(NC)c3c2)n1 | 300
10 | C[n+]1c2ccccc2c(N)c2cc(Nc3nc(N)nc(Nc4ccc5c(c4)c(N)c4ccccc4[n+]5C)n3)ccc21 | 890
11 | Cc1cc(N)c2cc(Nc3nc(N)nc(Nc4ccc5nc(C)cc(N)c5c4)n3)ccc2n1 | 51
12 | N=C(N)c1ccc(Nc2nc(N)nc(Nc3ccc(C(=N)N)cc3)n2)cc1 | 740
13 | Cc1cc(N(C)C)c2cc(Nc3nc(Cl)nc(Nc4ccc5nc(C)cc(N(C)C)c5c4)n3)ccc2n1 | 3000
14 | CSc1nc(Nc2ccc3c(c2)c(=N)cc(C)n3C)nc(Nc2ccc3c(c2)c(=N)cc(C)n3C)n1 | 950
15 | CSc1nc(Nc2ccc3nc(C)cc(N)c3c2)nc(N(C)c2ccc3ncccc3c2)n1 | 3500
16 | COc1cc(C)nc2ccc(Nc3nc(Nc4ccc5nc(C)cc(N)c5c4)nc(SC)n3)cc12 | 2300
17 | CSc1nc(Nc2ccc3nc(C)cc(C)c3c2)nc(Nc2ccc3nc(C)cc(N)c3c2)n1 | 3400
18 | Cc1cc(N)c2cc(Nc3nc(N)nc(Nc4ccc5c(c4)c(N)cc(C)[n+]5C)n3)ccc2[n+]1C | 250

More lines, in order of falling IC50, values ahead:

Row | IC50 [nM] | SMILES
19 | 3900 | COc1cc(C)nc2ccc(Nc3nc(Nc4ccc5nc(C)cc(OC)c5c4)nc(SC)n3)cc12
20 | 3300 | CSc1nc(Nc2cccc(C(=N)N)c2)nc(Nc2ccc3nc(C)cc(N)c3c2)n1
21 | 3300 | COc1ccc2nccc(Nc3nc(Nc4ccc5nc(C)cc(C)c5c4)nc(SC)n3)c2c1
22 | 3300 | CSc1nc(Nc2ccc3nc[nH]c3c2)nc(Nc2ccc3nc(C)cc(C)c3c2)n1
23 | 2800 | CCn1c2ccccc2c2cc(Nc3nc(Nc4ccc5nc(C)cc(N)c5c4)nc(SC)n3)ccc21
24 | 2600 | CSc1nc(Nc2ccc3ncccc3c2)nc(Nc2ccc3nc(C)cc(N)c3c2)n1
25 | 2500 | CCN(CC)c1nc(Nc2ccc3ncccc3c2)nc(Nc2ccc3nc(C)cc(N)c3c2)n1
26 | 2000 | Cc1cc(N)c2cc(NC(=N)NC(=N)Nc3ccc4nc(C)cc(N)c4c3)ccc2n1
27 | 510 | CNc1nc(Nc2ccc3nc(C)cc(N)c3c2)nc(Nc2ccc3nc(C)cc(N)c3c2)n1
28 | 340 | CSc1nc(Nc2ccc3nc(C)cc(N)c3c2)nc(Nc2ccc3nc(C)cc(N(C)C)c3c2)n1
29 | 220 | Cc1cc(N)c2cc(Nc3nc(Nc4ccc5c(c4)c(N)cc(C)[n+]5C)nc(N(C)C)n3)ccc2[n+]1C
30 | 130 | C[n+]1cccc2cc(Nc3nc(N)nc(Nc4ccc5c(ccc[n+]5C)c4)n3)ccc21
31 | 49 | CSc1nc(Nc2ccc3nc(C)cc(N)c3c2)nc(Nc2ccc3nc(C)cc(N)c3c2)n1
